In patent US7199113B2, “Pharmaceutically active compounds and methods of use thereof” (priority 1998, dated 2007):
Where two headings read alike, the source gives them in different places.

How the values were obtained:
FVIIa = molecular target: T1, FVIIa (Homo sapiens, UniProt P08709); test: FVIIa-dependent FX activation (TF omitted); assay type: biochemical; details: statement on Table 2 (FIG. 2(b))
T1 construct: proteolytic cleavage of the zymogen FVII to the active serine protease FVIIa; purchased Enzyme Research Laboratories Inc
T1 sequence (P08709 213-466 limits assumed): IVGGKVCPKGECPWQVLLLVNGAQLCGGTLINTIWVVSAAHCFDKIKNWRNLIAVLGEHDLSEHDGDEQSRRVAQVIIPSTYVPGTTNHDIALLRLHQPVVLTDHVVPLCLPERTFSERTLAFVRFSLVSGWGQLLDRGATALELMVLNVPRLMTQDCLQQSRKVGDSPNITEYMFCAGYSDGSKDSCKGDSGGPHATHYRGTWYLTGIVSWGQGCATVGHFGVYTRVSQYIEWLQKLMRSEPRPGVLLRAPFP
T1 sequence (P08709 61-212 limits assumed): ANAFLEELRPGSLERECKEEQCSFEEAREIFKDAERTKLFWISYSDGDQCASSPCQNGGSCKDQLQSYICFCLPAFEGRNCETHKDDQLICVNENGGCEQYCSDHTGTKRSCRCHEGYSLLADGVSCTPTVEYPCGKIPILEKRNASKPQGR
Description: FVIIa alone in the presence of phospholipids and calcium is also able to activate FX, although at a very low rate. This experiment was designed to examine whether compounds 1 and 2 inhibit FVIIa-dependent FX activation if TF is omitted. […] This assay was done at relatively high FVIIa concentrations. Six microliters of compound 1(1 mM in 10% DMSO) or 10% DMSO was mixed with 40 μl of 25 mM HEPES-NaOH, 5 mM CaCl2, 150 mM NaCl, 0.1% BSA, pH 7.5 containing phosphatidylcholine (0.07 mg/ml) and phosphatidylserine (0.03 mg/ml). Then 4 μl of FVIIa (1.5 μM) and 10 μl of FX (180 nM) were added and mixed. The mixture was incubated for 1 hour at 37° C. Then 10 μl of EDTA (400 mM) was added to stop FVII activity by removing the calcium required for factor VII activity. Then 10 μl of FXa substrate S-2765 (3.2 mM) was added to measure the FXa activity generated by FVIIa. After 16 minutes incubation at 37° C., 20 μl of 50% acetic acid was added to quench the reaction. Absorbance at 405 nm was read and the percent inhibition of FVIIa-dependent FX activation was calculated from OD405 nm values in the absence and presence of compound 1.

[1] = molecular target: T2, human recombinant TF/VIIa complex (lipidated) (Homo sapiens, UniProt P13726); test: TF/VIIa-dependent FX activation assay; assay type: biochemical; details: for outcome of primary and secondary screening (TF antagonism): inhibit FX activation at lower concentrations (<0.1 mM) without significant effects on protease activities; for blocking activity in standard assay for TF/VIIa-dependent factor X activation: statement on FIG. 3
T2 construct: Truncated recombinant human tissue factor (e.g. composed of 243 amino acids) is expressed in E. coli; host or cells: E. coli (TF)
Description: A more particular example of the primary screening assay discussed previously is as follows. The assay is standard for measuring TF/VIIa-dependent factor X activation. […] In a more preferred embodiment, the primary screening preferably includes the following steps. • 1) admixing in a suitable assay solution about 0.1 nM of human recombinant TF/VIIa complex (lipidated), about 180 nM human FX, and between from about 0.5 μl to about 10 μl of at least one compound to be tested (optionally dissolved in an appropriate vehicle such as water or dimethylsulfoxide (DMSO)) and incubating the reaction at 37° C. for a few minutes up to about an hour or more, • 2) contacting the solution with a suitable chelating agent such as ethylenediaminietetra acetic acid (EDTA) to reduce or stop factor X activation, • 3) contacting the solution with a detectable amount of a chromogenic substrate specific for FXa (e.g., Spectrozyme FXa or S-2765) and incubating same at 37° C.; and • 4) detecting chromophore produced in the solution as being indicative of the factor X activation.
The primary screening for compounds that inhibit tissue factor/factor VIIa (TF/VIIa) is based on TF/VIIa-dependent FX activation assay (See flow chart in FIG. 1 of the drawings). In this assay, the ability of TF/VIIa complex to activate FX is determined in two discontinuous stages. […] In the second stage (FXa activity assay), EDTA is added at indicated times to the FX activation mixture to chelate calcium, thus leading to the termination of FX→FXa conversion. Calcium is required for TF/VIIa activity. The activity of FXa is then measured by FXa-specific chromogenic substrates such as S-2222, S-2765, or Spectrozyme FXa. In the primary screening, compounds from a previously prepared chemical library are first tested at relatively high concentrations (˜0.833 mM) in TF/VIIa-dependent FX activation assay to identify hits of potential TF pathway antagonists (see FIG. 1). However, it is evident that the inhibition of TF/VIIa-dependent FX activation by a compound in this enzyme-coupled assay can be attributed to effects of the compound on TF/VIIa and/or FXa activities. Thus, secondary screening tests are designed to determine how inhibition takes place and the inhibition mechanism. In secondary screening experiments, effects of those compounds identified from primary screening are tested on catalytic activities of factor VIIa (FVIIa), factor IXa (FIXa), factor Xa (FXa), thrombin, Russell's viper venom (RVV), and trypsin.
Primary screening was done in duplicate in 96-well plates using the TF/VIIa-dependent FX activation assay. All compounds to be screened were dissolved in dimethyl sulfoxide (DMSO), other reagents were prepared or diluted in 25 mM HEPES-NaOH, 5 mM CaCl2, 150 mM NaCl, 0.1% BSA, pH 7.5. For assays where TF was used, purified human recombinant TF (100 nM) was first lipidated with phosphatidylcholine (0.07 mg/ml) and phosphatidylserine (0.03 mg/ml) in 50 mM Tris-HCl, pH 7.5, 0.1% bovine serum albumin (BSA) for 30 minutes at 37° C. A stock solution of TF/VIIa complex was then prepared by combining equal volumes of 100 nM lipidated TF and 100 nM FVIIa The complex was incubated at 37° C. for 30 minutes and then was aliquoted and stored at −70° C. for future uses.
For screening assays, 5 μl of each compound (about 10 mM in DMSO) or DMSO were placed in each well of a 96-well plate, followed by adding 45 μl of TF/VIIa complex (0.1 nM). The components in each well were mixed either with pipette tips or by shaking the plate on a Lab-Line titer plate shaker for 30 seconds. After 15 minutes incubation of the plate at a 37° C., 10 μl of human FX (180 nM) was added to each well and mixed as above. The plate was then incubated at 37° C. for 3 to 15 minutes, followed by addition of 10 μl of EDTA (400 mM in 144 mM HEPES, 864 mM NaCl, 0.576% BSA, pH adjusted to 7.5) to each well to terminate FX activation. […]

[2] = titration, data of Table 3 (FIG. 2(c)), primary screening method, read-out: IC50 (inhibitor concentration at which 50% of TF/VIIa-dependent FX activation is inhibited)

T2 sequence (P13726 33-275 limits assumed, one chain of several): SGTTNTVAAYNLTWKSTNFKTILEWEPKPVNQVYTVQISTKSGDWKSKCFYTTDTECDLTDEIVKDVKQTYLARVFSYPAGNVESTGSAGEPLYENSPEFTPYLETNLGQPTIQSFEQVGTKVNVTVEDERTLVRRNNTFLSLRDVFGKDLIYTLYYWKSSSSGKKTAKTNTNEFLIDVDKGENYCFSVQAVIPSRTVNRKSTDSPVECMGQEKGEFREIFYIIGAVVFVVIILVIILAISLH

Row | Structure (SMILES) | inhibition of FVIIa-dependent FX activation (FVIIa) | IC50 ([1]; compound preincubated with TF/VIIa 15 minutes at 37° C. prior to FX, FX 30 nM, read-out: IC50, TF/VIIa-dependent FX activation) [µM] | outcome of primary and secondary screening (TF antagonism) [1] | effect on apparent Km values for FX substrate ([1]; kinetic analysis, FIG. 5) | mode of inhibition of TF/VIIa complex ([1]; kinetic analysis, FIG. 5) | blocking activity in standard assay for TF/VIIa-dependent factor X activation [1] | IC50 [1, 2] [µM]
1 | O=P(O)(O)C(CNc1cccc(O)c1)P(=O)(O)O [Compound 1, 1-(bisphosponate)-2-amino(3-hydroxyphenyl)ethyl] | does not inhibit FVIIa-dependent FX activation | 12.5 | strong TF antagonists | significantly increased | competitive inhibitor | good blocking activity | 19
2 | O=P(O)(O)C(CNc1ccc(O)cc1)P(=O)(O)O [Compound 2] | – | – | strong TF antagonists | – | – | good blocking activity | 9.7
